Test: Breath analysis by SIFT-MS before and after ingestion of 75 g glucose in healthy subjects
Format: in vivo, human
Conditions: for Cmax (maximum levels) in breath, interquartile range (IQR) / Cmax (maximum levels) in breath, median (M): breath sampled every 5 minutes for 90 minutes
[1] = 10 healthy subjects fasted overnight, after 75 grams of glucose in 300 ml of water

Description: A total of 10 healthy subjects were recruited and instructed to fast overnight and avoid drinking alcohol the day before the experiment. Breath was analysed using selected ion flow tube mass spectrometry (SIFT-MS). […] Afterwards, 75 grams of glucose dissolved in 300 ml of water were ingested, and 3 consecutive breath samples were provided every 5 minutes for 90 minutes. Measured compounds were expressed as part per billion volume/volume (PPB) and plotted as a function of time. Ambient samples were collected before and after the procedure.
The subjects were asked to fast overnight and not drink alcohol the day before the experiment.
A total of 75 g of glucose from Bulk (https://www.bulk.com/uk/dextrose.html?view=ppc&pid=2378&gclid=CjwKCAjw-vmkBhBMEiwAlrMeF2SOAMhqgNq65EV8YC2XWu63e4ByfJckgwv5jKZfzCA6BbIB24sLSBoC—kQAvD_BwE) was weighted in a glass and 300 ml of water was added and mixed until the full amount was dissolved. A total of 6 blank samples were collected and analysed before and after the procedure. The subjects provided breath samples before and every 5 minutes over 90 minutes after glucose ingestion. Each timepoint was represented by a 15 second breath exhalation consecutively repeated 3 times ed o and averaged for every timepoint. Breath samples were directly sampled for Selected-ion flow-tube mass spectrometry (SIFT-MS). Subjects exhaled into a single use Mouthpiece and Reservoir Tube (PO007257 Imspex) that were replaced for each timepoint collection.
Scans were performed in batch mode; data were collected in single ion mode (SIM). SIM scan was 50 secs long.

SMILES	Tmax (time to maximum level) in breath, interquartile range (IQR) [1] [min]	Tmax (time to maximum level) in breath, median (M) [1] [min]	Cmax (maximum levels) in breath, interquartile range (IQR) [1]	Cmax (maximum levels) in breath, median (M) [1] [PPB]	Time for breath levels to return to baseline (after glucose administration, all investigated subjects) [min]	Return of breath levels to baseline (in words) (after glucose administration, investigated timeframe 90 minutes)
CC(=O)C(C)O (centres unmarked) [acetoin]	10 to 15	10	4-8.8 PPB	7	≤ 50	
CCO [ethanol]			303-593 PPB	400		returned to baseline at the end of the investigated timeframe for all but 1 subject
